Read-outs that look alike come from different tables or passages of the source.
How the values were obtained:
[1] = target: c-Kit kinase (Homo sapiens (Human), UniProt P10721); test: c-Kit kinase biochemical activity assay (AlphaScreen, biotin-(E4Y)10 phosphorylation)
Procedure: In one assay the biochemical activity IC50 values are determined with respect to inhibition of c-Kit kinase activity, where inhibition of phosphorylation of a peptide substrate is measured as a function of compound concentration. Compounds to be tested are dissolved in DMSO to a concentration of 20 mM. These are diluted 30 μL into 120 μL of DMSO (4 mM) and 1 μL is added to an assay plate. These are then serially diluted […] (50 μL to 100 μL DMSO) for a total of 8 points. Plates are prepared such that each kinase reaction is 20 μL in 1× kinase buffer (25 mM HEPES, pH 7.5, 2 mM MgCl2, 2 mM MnCl2, 0.01% Tween-20, 1 mM DTT, 0.01% BSA), 5% DMSO and 100 μM ATP. Substrate is 30 nM biotin-(E4Y)10 (Millipore). C-kit kinase (obtained from Millipore (#14-559) or is prepared as described in U.S. Patent Application Publication Number 2009/0076046, the disclosure of which is hereby incorporated by reference as it relates to this assay) is at 0.75 ng per sample. After incubation of the kinase reaction for 1 hour at room temperature, 5 μL of donor beads (Streptavidin coated beads (Perkin Elmer Life Science) final concentration 10 μg/mL) in stop buffer (25 mM Hepes pH 7.5, 100 mM EDTA, 0.01% BSA) is added, the sample is mixed and incubated for 20 minutes at room temperature before adding 5 μL of acceptor beads (PY20 coated beads (Perkin Elmer Life Science) final concentration 10 μg/mL) in stop buffer. The samples are incubated for 60 minutes at room temperature and the signal per well is read on Envision reader. […] The signal vs. compound concentration is used to determine the IC50.

[2] = target: BCR-FMS/BaF3 cells (Homo sapiens, UniProt P07333); test: BCR-FMS/BaF3 cell proliferation assay (ATPlite); assay type: cell-based
Sequence of BCR-FMS/BaF3 cells (P07333 20-972 limits assumed, change not shown): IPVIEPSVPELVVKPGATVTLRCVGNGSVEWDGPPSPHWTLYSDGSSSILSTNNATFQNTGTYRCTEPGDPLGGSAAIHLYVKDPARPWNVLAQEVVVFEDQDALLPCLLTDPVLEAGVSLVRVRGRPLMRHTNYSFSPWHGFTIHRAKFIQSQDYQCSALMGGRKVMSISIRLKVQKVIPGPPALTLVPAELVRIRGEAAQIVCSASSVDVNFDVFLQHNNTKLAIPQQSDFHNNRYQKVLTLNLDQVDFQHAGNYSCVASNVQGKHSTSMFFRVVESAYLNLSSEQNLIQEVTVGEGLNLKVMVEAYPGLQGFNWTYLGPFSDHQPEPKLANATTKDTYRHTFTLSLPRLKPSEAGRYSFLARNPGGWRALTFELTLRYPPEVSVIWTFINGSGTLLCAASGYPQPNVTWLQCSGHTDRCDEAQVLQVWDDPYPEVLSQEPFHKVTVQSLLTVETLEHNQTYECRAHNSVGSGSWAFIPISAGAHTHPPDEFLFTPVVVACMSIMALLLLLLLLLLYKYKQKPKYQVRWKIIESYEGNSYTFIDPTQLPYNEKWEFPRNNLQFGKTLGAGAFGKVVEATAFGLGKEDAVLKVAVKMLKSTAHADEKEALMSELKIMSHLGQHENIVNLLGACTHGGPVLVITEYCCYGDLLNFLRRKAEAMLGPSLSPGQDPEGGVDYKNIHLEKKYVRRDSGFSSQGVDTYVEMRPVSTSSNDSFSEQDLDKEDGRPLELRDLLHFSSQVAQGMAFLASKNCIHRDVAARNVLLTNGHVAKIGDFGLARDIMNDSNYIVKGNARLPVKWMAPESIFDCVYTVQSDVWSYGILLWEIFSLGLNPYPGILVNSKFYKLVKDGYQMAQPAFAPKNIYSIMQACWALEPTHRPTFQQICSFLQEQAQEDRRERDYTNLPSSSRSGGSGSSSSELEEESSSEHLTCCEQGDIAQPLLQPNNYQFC
Outline: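 Proliferation read by ATPlite luminescence after 3 days' exposure (37 °C, 5% CO2) to compound in 1:3 dilutions, eight points, maximum 10 μM final, DMSO control.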

[3] = target: CYP1A2 (Homo sapiens (Human), UniProt P05177); test: CYP enzyme inhibition, fluorescent substrate
Sequence of CYP1A2 (P05177 whole entry): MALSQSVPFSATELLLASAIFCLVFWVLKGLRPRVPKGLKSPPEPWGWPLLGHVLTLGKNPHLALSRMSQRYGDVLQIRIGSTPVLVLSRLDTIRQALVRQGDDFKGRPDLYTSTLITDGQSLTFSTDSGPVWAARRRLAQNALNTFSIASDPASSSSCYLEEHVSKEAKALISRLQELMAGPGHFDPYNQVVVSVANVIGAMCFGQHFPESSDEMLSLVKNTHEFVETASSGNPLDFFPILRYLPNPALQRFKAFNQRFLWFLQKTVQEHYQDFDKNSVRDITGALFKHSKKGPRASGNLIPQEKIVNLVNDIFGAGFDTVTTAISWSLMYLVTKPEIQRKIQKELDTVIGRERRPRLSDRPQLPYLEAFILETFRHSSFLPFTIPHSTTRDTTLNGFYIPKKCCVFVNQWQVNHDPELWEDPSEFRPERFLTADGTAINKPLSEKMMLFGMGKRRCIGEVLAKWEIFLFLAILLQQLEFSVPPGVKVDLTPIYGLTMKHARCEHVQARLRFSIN
Procedure: (§1) CYP (Cytochrome P450) enzymes are the major drug metabolizing enzymes present in the liver. The inhibition of CYP enzyme activity (IC50) for each of CYP1A2, CYP2C19, CYP2C9, CYP2D6, CYP3A4(BFC) and CYP3A4(BQ) is determined for compounds, where inhibition of metabolism of a known substrate leads to a decrease in the fluorescence of the metabolized product. The fluorescence of the product is monitored as a function of compound concentration.
(§2) Compounds are dissolved in DMSO to a concentration of 100 mM. These are diluted 1 μL into 82 μL of acetonitrile. An 11 μL aliquot of this solution is then added to 204 μL of cofactor mix (1.3% NADPH Regeneration system Solution A, 1.04% NADPH Regeneration system Solution B from BD Biosciences, 5% acetonitrile and 0.05% DMSO). These are then serially diluted 1:1 (160 μL to 160 μL co-factor mix) for a total of 10 points. A 10 μL aliquot of this final mixture is dispensed into 384 well assay plates and incubated for 10 minutes at 37° C. Enzyme and substrate mix (10 μL; […] CYP1A2/5 μM CEC; 1.0 μmol CYP2C9/75 μM MFC; […] CYP2C19/25 μM CEC; 1.5 μmol CYP2D6/1.5 μM AMMC; 1.0 μmol CYP3A4/50 μM BFC; or 1.0 μmol CYP3A4/40 μM BQ) is added to these assay plates. Assay plates are incubated at 37° C. (CYP1A2-15 min; CYP2C9-45 min; CYP2C19, 2D6 and 3A4-30 min) and read in a Tecan Safire 2 plate reader (CYP1A2, 2C19 and 3A4 409 ex/460 em; CYP2C9 and 2D6409 ex/530 em). The signal versus compound concentration is used to determine the IC50. The enzymes and substrates for this assay are obtained from BD Biosciences.

[4] = target: CYP2C19 (Homo sapiens (Human), UniProt P33261); test: CYP enzyme inhibition, fluorescent substrate
Sequence of CYP2C19 (P33261 whole entry): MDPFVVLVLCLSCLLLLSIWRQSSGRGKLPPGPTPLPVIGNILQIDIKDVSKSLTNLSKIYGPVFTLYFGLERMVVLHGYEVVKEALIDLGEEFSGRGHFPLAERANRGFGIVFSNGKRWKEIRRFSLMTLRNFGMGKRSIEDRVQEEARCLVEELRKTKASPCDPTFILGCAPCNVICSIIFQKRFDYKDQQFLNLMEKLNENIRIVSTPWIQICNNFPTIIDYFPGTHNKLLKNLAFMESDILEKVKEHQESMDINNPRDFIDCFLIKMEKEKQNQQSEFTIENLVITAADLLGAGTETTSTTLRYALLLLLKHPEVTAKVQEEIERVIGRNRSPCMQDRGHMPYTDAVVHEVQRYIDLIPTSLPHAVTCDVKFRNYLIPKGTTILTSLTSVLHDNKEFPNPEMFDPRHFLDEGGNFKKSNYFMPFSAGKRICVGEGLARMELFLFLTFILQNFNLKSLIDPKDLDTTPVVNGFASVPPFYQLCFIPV
Procedure: as §1, §2

[5] = target: CYP2C9 (Homo sapiens (Human), UniProt P11712); test: CYP enzyme inhibition, fluorescent substrate
Sequence of CYP2C9 (P11712 whole entry): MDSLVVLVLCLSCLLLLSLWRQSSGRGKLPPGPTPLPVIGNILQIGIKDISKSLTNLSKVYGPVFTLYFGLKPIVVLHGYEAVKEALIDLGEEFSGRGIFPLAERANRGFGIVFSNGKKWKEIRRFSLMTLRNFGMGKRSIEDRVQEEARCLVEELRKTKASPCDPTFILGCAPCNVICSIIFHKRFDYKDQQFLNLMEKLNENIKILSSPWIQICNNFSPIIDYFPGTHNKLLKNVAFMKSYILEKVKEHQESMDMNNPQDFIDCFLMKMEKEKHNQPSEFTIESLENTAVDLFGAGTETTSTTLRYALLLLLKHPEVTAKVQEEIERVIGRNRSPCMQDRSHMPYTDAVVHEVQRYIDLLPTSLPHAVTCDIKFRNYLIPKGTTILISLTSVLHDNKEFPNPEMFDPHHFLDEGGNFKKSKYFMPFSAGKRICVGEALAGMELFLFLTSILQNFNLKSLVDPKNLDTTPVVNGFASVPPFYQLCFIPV
Procedure: as §1, §2

[6] = target: CYP3A4(BFC) (Homo sapiens (Human), UniProt P08684); test: CYP enzyme inhibition, fluorescent substrate
Sequence of CYP3A4(BFC) (P08684 whole entry): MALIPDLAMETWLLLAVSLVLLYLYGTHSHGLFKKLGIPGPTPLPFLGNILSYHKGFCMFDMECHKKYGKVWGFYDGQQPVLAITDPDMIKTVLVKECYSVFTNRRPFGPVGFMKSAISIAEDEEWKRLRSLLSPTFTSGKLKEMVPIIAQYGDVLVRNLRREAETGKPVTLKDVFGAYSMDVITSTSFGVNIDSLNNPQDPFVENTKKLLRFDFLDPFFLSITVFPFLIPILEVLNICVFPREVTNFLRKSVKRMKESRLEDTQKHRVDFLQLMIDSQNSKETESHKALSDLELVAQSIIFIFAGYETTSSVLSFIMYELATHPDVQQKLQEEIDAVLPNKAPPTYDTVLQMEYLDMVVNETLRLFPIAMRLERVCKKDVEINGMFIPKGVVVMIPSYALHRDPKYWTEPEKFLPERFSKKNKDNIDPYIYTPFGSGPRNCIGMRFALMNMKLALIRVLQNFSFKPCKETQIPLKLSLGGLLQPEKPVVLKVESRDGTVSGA
Procedure: as §1, §2

[7] = target: CYP2D6 (Homo sapiens (Human), UniProt P10635); test: CYP enzyme inhibition, fluorescent substrate; details: read-out: Cyp IC50 (μM) 2D6
Sequence of CYP2D6 (P10635 whole entry): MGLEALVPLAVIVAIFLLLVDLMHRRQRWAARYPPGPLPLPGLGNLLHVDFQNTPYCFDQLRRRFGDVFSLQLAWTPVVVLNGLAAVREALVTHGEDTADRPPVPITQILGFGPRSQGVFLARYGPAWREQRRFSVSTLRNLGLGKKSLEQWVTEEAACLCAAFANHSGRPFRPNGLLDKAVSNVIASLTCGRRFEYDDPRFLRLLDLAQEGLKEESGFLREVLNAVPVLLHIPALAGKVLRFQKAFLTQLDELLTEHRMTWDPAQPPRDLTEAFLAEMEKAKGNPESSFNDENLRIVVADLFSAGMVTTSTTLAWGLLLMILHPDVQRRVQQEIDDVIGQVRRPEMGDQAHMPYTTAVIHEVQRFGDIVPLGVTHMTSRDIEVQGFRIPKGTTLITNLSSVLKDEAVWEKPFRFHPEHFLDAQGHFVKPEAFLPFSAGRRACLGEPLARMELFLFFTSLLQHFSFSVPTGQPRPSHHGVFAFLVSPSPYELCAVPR
Procedure: as §1, §2

[8] = Kit IC50/Fms IC50, BCR-KIT/BaF3 vs BCR-FMS/BaF3 cells
[9] = read-out: BCR/BaF3 (IC50 μM) Fms; BCR-FMS/BaF3 cells
[10] = read-out: Cyp IC50 (μM) 3A4(BFC), BFC substrate
[11] = human, CYP2C9 enzyme (BD Biosciences), 45 min
[12] = read-out: Cell based (IC50 μM) BCR/BaF3 (Fms); BCR-FMS/BaF3 cells, 3 days

Sequence of c-Kit kinase (P10721 26-976): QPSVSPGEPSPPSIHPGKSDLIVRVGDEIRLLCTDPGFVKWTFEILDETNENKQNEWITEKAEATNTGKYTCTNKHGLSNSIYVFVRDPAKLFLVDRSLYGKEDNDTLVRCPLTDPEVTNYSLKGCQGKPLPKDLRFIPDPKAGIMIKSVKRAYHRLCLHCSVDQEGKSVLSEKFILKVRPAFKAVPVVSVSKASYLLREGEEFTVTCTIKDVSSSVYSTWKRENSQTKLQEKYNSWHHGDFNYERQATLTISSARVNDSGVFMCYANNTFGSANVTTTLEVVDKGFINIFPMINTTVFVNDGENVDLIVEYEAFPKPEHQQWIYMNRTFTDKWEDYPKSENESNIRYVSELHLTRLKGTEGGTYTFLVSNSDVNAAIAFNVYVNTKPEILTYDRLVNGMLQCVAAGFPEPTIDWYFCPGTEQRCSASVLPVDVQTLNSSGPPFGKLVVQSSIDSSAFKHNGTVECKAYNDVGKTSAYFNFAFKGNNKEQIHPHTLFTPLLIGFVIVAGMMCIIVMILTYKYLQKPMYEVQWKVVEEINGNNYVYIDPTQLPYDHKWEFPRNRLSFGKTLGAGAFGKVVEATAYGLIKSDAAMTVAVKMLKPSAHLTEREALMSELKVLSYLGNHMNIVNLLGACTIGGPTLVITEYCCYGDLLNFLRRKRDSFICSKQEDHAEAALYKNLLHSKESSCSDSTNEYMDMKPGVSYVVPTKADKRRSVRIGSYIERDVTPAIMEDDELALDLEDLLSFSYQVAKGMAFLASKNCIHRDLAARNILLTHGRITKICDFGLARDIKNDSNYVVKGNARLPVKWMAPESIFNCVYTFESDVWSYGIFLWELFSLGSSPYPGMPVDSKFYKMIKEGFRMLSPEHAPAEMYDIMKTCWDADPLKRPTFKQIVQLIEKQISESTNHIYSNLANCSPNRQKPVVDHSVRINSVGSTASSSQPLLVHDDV

| SMILES | IC50 [1] [µM] | BCR/BaF3 selectivity (Kit IC50/Fms IC50) [2, 8] | IC50 [2, 9] [µM] | IC50 ([3]; human, 15 min) [µM] | IC50 ([4]; read-out: Cyp IC50 (μM) 2C19) [µM] | IC50 ([5]; read-out: Cyp IC50 (μM) 2C9) [µM] | IC50 [6, 10] [µM] | IC50 [5] [µM] | IC50 [7] [µM] | IC50 [6] [µM] | IC50 [5, 11] [µM] | IC50 [2, 12] [µM] | IC50 [3] [µM] | IC50 ([2]; BCR-FMS/BaF3 cells; read-out: BCR/BaF3 (IC50 μM) Fms) [µM] | IC50 [4] [µM] |
| --- | --- | --- | --- | --- | --- | --- | --- | --- | --- | --- | --- | --- | --- | --- | --- |
| COc1cnc2[nH]cc(Cc3ccc(NCc4cncc(F)c4)nc3F)c2c1 [Compound P-2028, [6-Fluoro-5-(5-methoxy-1H-pyrrolo[2,3-b]pyridin-3-ylmethyl)-pyridin-2-yl]-(5-fluoro-pyridin-3-ylmethyl)-amine] | > 0.1 | >20 | < 0.1 | > 10 | > 10 | < 5 | < 5 |  |  |  |  |  |  |  |  |
| COc1ccc(CNc2ccc(Cc3c[nH]c4ncc(F)cc34)c(F)n2)cn1 [Compound P-1622, [6-Fluoro-5-(5-fluoro-1H-pyrrolo[2,3-b]pyridin-3-ylmethyl)-pyridin-2-yl]-(6-methoxy-pyridin-3-ylmethyl)-amine] | > 0.1 | >20 | < 0.1 | > 10 |  |  |  | 5 to 10 | > 10 | 5 to 10 |  |  |  |  |  |
| CS(=O)(=O)Nc1cnc2[nH]cc(Cc3ccc(NCc4ccc(Cl)nc4)nc3F)c2c1 [Compound P-1679, N-(3-{6-[(6-Chloro-pyridin-3-ylmethyl)-amino]-2-fluoro-pyridin-3-ylmethyl}-1H-pyrrolo[2,3-b]pyridin-5-yl)-methanesulfonamide] | > 0.1 | >20 | < 0.1 | > 10 |  |  | > 10 |  | > 10 |  | < 5 |  |  |  |  |
| COc1ncc(F)cc1CNc1ccc(Cc2c[nH]c3ncc(NC(C)=O)cc23)c(F)n1 [Compound P-1669, N-(3-{2-fluoro-6-[(5-fluoro-2-methoxy-pyridin-3-ylmethyl)-amino]-pyridin-3-ylmethyl}-1H-pyrrolo[2,3-b]pyridin-5-yl)-acetamide] |  | >20 | < 0.1 | > 10 | > 10 | < 5 |  |  | > 10 | 5 to 10 |  |  |  |  |  |
| COc1cnc2[nH]cc(Cc3ccc(NCc4ccc(Cl)cc4)nc3F)c2c1 [Compound P-2032, (4-Chloro-benzyl)-[6-fluoro-5-(5-methoxy-1H-pyrrolo[2,3-b]pyridin-3-ylmethyl)-pyridin-2-yl]-amine] | < 0.1 | <20 | < 0.1 |  |  |  | > 10 |  | > 10 |  | < 5 | < 0.1 | 5 to 10 |  |  |
| Cc1ccc(CNc2ccc(Cc3c[nH]c4ncc(C)cc34)c(F)n2)nc1 [Compound P-2131, [6-Fluoro-5-(5-methyl-1H-pyrrolo[2,3-b]pyridin-3-ylmethyl)-pyridin-2-yl]-(5-methyl-pyridin-2-ylmethyl)-amine] | > 0.1 | <20 |  | > 10 |  |  | < 5 |  |  |  | < 5 |  |  | < 0.1 | 5 to 10 |
| Cc1cnc2[nH]cc(Cc3ccc(NCc4ccc(C(F)(F)F)nc4)nc3F)c2c1 [Compound P-2031, [6-Fluoro-5-(5-methyl-1H-pyrrolo[2,3-b]pyridin-3-ylmethyl)-pyridin-2-yl]-(6-trifluoromethyl-pyridin-3-ylmethyl)-amine] | > 0.1 | >20 | < 0.1 | > 10 |  |  |  |  | > 10 | 5 to 10 | < 5 | < 0.1 |  |  |  |

Source: patent publication US9096593B2, “Compounds and methods for kinase modulation, and indications therefor” (Plexxikon Inc., priority 2009, dated 2015)
